Results reported in patent publication US6281211A, “Substituted semicarbazides and the use thereof” (Euro-Celtique S.A., priority 2000, dated 2001).
Where two headings read alike, the source gives them in different places. Each block holds one compound with its values, some of them ahead of it.

Legend:
[1] = test system: maximal electroshock-induced seizures (MES); experiment: maximal electroshock-induced seizures (MES) test in mice; format: in vivo; conditions: Mus musculus
Experimental: The compounds of the present invention may be tested for in vivo anticonvulsant activity after iv. po or ip injection using a number of anticonvulsant tests in mice (audiogenic seizure model in DBA-2 mice, pentylenetetrazol-induced seizures in mice, maximum electroshock seizure test (MES)).
The ability of 1-[4-(4-fluorophenoxy)benzyl]semicarbazide to block maximal electroshock-induced seizures (MES) was determined by the following procedure.
Seizures were induced by application of current (50 mA, 60 pulses/sec, 0.8 msec pulse width, 1 sec duration, D.C.) using a Ugo Basile ECT device (model 7801). Mice were restrained by gripping the loose skin on their dorsal surface and saline-coated corneal electrodes were held lightly against the two cornea. […] A tonic seizure was defined as a hindlimb extension in excess of 90 degrees from plane of the body.
1-[4-(4-Fluorophenoxy)benzyl]semicarbazide was administered iv to mice 10 min before the test procedure.

hSkM1 sodium channels = molecular target: T1, hSkM1 sodium channels (Homo sapiens, UniProt P35499); experiment: Electrophysiological assay: whole-cell patch-clamp recordings of voltage-gated Na+ currents in HEK-293 cells stably expressing hSkM1; format: cell-based
T1 construct: expressed in transfected cells
Experimental: Electrophysiological Assay:
Cellpreparation: HEK-293 cells stably expressing the hSkM1 isoform of Na^+ channels (generous gift from Dr. A. L. George, Vanderbilt University Medical School) were cultured using standard techniques, as described previously (Verdoorn, T. A, et al., Neuron 4:919-928 (1990)). For electrophysiology, cells were plated onto 35 mm Petri dishes (pre-coated with poly-D-lysine) at a density of 1:40 on the day of re-seeding from confluent cultures. Cells are suitable for recordings for 2-3 days after plating.
Patch-clamp recordings of voltage-sensitive Na^+ currents: Whole-cell voltage-clamp recordings were made using conventional patch-clamp techniques (Hamill et al, Pfluegers Arch. 391:85-100 (1981)) with an Axopatch 200 A amplifier (Axon Instruments, Foster City, Calif.). Recordings were made within 2-3 hours after neuron dissociation. The recording chamber was continuously superfused with the external solution (150 mM NaCl, 5.4 mM KCl, 1.8 mM CaCl2, 1 mM MgCl2, 10 mM HEPES, 10 mM glucose, pH 7.4 (NaOH)) at a speed of about 1 ml/min. Recording pipettes were pulled from thick-walled capillaries (WPI, Sarasota, Fla.) and fire-polished. The pipette resistances ranged from 1 to 3 M.OMEGA. when the pipettes were filled with internal solution containing (in mM): 110 CsF, 10 NaCl, 5 MgCl2, 11 EGTA, 10 HEPES, pH adjusted to 7.4 with CsOH. Osmolality was set with a difference of 15-20 mmol/kg between external and internal solutions (lower inside the cell). Drugs and intervening wash-outs were applied through a linear array of flow pipes (Drummond Microcaps, 2-μl, 64-mm length). Compounds are dissolved in dimethylsulfoxide (DMSO) to make a […] stock solution, which was subsequently diluted into the external solution to give final concentrations of 0.1-100 μM. At the highest (1%) concentration, DMSO inhibited the size of Na^+ current only slightly. Currents were recorded at room temperature (22-25° C.), filtered at 5 kHz with an active 8-pole Bessel filter (Frequency Devices, Haverhill, Mass.), digitized at 10-50-μs intervals, and stored using Digidata 1200 analog/digital interface with Pclamp6/Clampex software (Axon Instruments).Series resistance was cancelled typically by ~75% when necessary. The inhibitory potency of drugs was assessed by measuring reductions in the peak amplitude of Na^+ currents induced by increasing concentrations of compounds tested. Na^+ currents were elicited by stepping membrane voltage from holding potentials over the range -100 mV to -50 mV, to a pulse potential of -10 mV. The test pulse duration was 5-10 msec, repeated at a frequency ≤1 Hz. Concentration-inhibition curves were fitted with equation 1:
I/Icontrol =1/(1+([compound]/IC50)) Eq. 1 […]

[2] = test system: global and focal ischemia; conditions: animal models of global and focal ischemia; cited from earlier work
ALS = conditions: subset of patients with ALS; cited from earlier work
[3] = HEK-293 cells stably expressing hSkM1

T1 sequence (P35499 whole entry): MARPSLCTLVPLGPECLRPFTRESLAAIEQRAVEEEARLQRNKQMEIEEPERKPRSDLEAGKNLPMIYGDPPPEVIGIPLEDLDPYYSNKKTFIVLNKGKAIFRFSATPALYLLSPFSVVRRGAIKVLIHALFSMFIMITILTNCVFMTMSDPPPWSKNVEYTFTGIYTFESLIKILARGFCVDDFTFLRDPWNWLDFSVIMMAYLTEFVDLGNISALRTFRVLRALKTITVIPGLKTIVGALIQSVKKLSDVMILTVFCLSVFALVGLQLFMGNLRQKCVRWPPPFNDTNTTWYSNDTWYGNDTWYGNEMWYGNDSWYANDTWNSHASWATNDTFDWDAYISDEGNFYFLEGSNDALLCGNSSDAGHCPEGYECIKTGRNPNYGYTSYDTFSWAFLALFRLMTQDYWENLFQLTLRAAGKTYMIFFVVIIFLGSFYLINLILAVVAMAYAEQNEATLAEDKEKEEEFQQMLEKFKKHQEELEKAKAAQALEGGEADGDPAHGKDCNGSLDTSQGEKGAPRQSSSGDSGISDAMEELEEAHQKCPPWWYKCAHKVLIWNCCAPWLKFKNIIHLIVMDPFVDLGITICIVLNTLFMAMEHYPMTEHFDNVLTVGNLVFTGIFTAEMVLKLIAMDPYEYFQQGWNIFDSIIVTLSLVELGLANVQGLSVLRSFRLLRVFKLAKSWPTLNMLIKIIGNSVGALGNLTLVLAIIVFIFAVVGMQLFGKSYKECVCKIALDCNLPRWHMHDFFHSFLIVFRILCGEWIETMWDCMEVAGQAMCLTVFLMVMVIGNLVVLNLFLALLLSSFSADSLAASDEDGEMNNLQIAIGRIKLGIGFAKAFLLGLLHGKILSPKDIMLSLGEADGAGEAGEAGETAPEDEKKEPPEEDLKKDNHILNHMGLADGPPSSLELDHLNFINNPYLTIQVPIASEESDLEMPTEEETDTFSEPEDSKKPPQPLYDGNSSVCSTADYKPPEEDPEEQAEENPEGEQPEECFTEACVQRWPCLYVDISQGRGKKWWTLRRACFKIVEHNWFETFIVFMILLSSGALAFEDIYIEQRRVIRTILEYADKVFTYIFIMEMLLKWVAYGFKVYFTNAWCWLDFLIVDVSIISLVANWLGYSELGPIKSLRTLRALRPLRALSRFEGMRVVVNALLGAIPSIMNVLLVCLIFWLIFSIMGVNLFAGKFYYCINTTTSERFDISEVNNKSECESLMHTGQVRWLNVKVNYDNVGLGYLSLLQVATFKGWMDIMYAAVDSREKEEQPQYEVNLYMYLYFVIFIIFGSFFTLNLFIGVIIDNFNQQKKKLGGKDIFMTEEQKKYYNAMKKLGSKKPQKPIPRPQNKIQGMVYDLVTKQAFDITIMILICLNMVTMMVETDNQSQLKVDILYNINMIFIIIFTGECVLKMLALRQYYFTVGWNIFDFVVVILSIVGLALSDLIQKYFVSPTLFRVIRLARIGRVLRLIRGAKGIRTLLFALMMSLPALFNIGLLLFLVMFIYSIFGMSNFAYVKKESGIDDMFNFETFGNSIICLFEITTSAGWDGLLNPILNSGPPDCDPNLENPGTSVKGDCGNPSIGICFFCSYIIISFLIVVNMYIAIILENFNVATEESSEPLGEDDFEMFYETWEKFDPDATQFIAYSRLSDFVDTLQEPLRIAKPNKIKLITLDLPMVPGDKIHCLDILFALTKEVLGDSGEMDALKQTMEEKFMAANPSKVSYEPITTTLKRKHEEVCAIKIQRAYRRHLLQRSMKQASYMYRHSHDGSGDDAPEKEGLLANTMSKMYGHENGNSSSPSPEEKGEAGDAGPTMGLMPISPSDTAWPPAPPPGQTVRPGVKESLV

SMILES: NC(=O)NNCc1ccc(Oc2ccc(F)cc2)c(F)c1 [1-[3-Fluoro-4-(4-fluorophenoxy)benzyl]semicarbazide]
ED50 ([1]; po, read-out: ED50 against MES): 3.2 mg/kg

inhibition of voltage-gated sodium currents (hSkM1 sodium channels; [3]): dose-dependent inhibition
sensitivity of blocking effect on Na+ currents to the holding voltage (hSkM1 sodium channels; [3]): highly sensitive to the holding voltage
Kd (hSkM1 sodium channels; inactivated sodium channels, read-out: apparent antagonist dissociation constant (Kd) for inactivated sodium channels): ~7.5 µM
potency towards Na+ channels in their resting states (hSkM1 sodium channels; resting states): weak potency
SMILES: NC(=O)NNCc1ccc(Oc2ccc(F)cc2)cc1 [1-[4-(4-Fluorophenoxy)benzyl]semicarbazide]
ED50 ([1]; 10 min, iv, 10 min before the test, read-out: ED50 (the dose protecting 50% of animals) against MES): 4.2 mg/kg

SMILES: CN1CCN(c2ncc(-c3cc(Cl)cc(Cl)c3Cl)c(N)n2)CC1 [BW619C89]
neuroprotective activity [2]: neuroprotective

SMILES: Cc1ccc(-c2nc(C)c(CN3CCN(C(c4ccccc4)c4ccccc4)CC3)[nH]2)cc1 [lifarizine]
neuroprotective activity [2]: neuroprotective

SMILES: Nc1nc2ccc(OC(F)(F)F)cc2s1 [riluzole]
survival (ALS): prolong survival
